{
  "source": "patent US9670162B2",
  "about": "“Mitochondrial aldehyde dehyrogenase-2 modulators and methods of use thereof” (The Board of Trustees of the Leland Stanford Junior …, priority 2013, dated 2017)",
  "key": {"Aqueous solubility": {"assay": "Aqueous solubility", "format": "physicochemical", "method": "(§1) In vitro ADMET of compounds of the present disclosure was carried out according to known methods in the art. Below are data for certain compounds of the present disclosure."}, "[1]": {"assay": "Plasma protein binding (PPB), human", "format": "in vitro ADME", "method": "as §1"}, "human ALDH2 wild type": {"target": "T1, human ALDH2 wild type (Homo sapiens, UniProt P05091)", "T1 construct": "His-tag (pTrcHis vector) (N); made in house; host or cells: E. coli BL21", "T1 sequence (P05091 18-517)": "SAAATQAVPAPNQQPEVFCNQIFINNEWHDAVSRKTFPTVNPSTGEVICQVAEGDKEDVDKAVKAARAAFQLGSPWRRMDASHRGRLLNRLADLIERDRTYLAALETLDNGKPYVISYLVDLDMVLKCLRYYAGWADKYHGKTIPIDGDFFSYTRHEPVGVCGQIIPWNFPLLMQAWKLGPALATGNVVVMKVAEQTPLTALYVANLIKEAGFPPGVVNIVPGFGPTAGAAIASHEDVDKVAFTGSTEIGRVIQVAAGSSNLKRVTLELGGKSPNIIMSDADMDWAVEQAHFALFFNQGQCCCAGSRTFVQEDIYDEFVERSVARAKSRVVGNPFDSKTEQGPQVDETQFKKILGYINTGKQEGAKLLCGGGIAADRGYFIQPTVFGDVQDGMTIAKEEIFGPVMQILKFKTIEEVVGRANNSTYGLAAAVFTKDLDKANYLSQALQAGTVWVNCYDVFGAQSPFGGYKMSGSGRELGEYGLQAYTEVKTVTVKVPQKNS", "assay": "ALDH2 enzymatic assay (NADH at 340 nm), recombinant wild type enzyme", "format": "biochemical", "parameters": "key: −: no activation or inhibition; +: activation less than control 1; ++: activation similar to control 1, within 10%; +++: activation more than control 1 and less than control (compound 161); ++++: activation similar to compound 161, within 10%", "conditions": "activation relative to benchmarks control 1 and compound 161"}, "Plasma stability, human": {"assay": "Plasma stability, human", "format": "in vitro ADME", "conditions": "plasma", "method": "as §1"}, "CYP2C19": {"target": "CYP2C19 (Homo sapiens, UniProt P33261)", "sequence (P33261 whole entry)": "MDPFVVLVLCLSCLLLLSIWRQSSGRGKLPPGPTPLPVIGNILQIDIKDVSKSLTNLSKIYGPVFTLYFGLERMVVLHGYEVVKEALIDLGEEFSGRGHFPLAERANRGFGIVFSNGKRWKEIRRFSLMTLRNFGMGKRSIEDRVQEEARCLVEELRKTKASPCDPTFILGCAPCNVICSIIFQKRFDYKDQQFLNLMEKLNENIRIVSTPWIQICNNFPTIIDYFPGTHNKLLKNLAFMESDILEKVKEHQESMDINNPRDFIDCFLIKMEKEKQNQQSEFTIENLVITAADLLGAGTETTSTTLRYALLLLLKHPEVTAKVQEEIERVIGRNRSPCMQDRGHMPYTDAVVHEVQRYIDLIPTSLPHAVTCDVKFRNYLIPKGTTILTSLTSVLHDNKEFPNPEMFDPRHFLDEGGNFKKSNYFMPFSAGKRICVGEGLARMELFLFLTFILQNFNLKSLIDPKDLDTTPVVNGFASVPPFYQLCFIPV", "assay": "Cyp inhibition 2C19", "format": "in vitro ADME", "conditions": "10 μM", "method": "as §1"}, "MLM stability T1/2": {"assay": "MLM stability T1/2", "format": "in vitro ADME", "conditions": "mouse, liver microsomes", "method": "as §1"}, "CYP2C9": {"target": "CYP2C9 (Homo sapiens, UniProt P11712)", "sequence (P11712 whole entry)": "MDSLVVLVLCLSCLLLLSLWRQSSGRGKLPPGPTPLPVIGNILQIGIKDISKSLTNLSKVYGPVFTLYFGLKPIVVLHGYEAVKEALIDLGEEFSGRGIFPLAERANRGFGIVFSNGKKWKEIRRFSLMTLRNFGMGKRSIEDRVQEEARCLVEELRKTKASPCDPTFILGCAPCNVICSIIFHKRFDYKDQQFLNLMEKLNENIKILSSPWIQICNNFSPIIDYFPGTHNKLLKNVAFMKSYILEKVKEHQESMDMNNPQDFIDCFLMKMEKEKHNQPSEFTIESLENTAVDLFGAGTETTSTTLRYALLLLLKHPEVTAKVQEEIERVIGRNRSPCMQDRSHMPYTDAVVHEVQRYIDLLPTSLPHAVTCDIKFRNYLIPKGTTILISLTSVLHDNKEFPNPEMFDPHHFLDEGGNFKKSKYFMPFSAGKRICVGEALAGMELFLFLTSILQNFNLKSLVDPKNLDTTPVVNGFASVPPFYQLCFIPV", "assay": "Cyp inhibition 2C9", "format": "in vitro ADME", "method": "as §1"}, "NHPLM stability T1/2": {"assay": "NHPLM stability T1/2", "format": "in vitro ADME", "conditions": "monkey, liver microsomes", "method": "as §1"}, "CYP3A4": {"target": "CYP3A4 (Homo sapiens, UniProt P08684)", "sequence (P08684 whole entry)": "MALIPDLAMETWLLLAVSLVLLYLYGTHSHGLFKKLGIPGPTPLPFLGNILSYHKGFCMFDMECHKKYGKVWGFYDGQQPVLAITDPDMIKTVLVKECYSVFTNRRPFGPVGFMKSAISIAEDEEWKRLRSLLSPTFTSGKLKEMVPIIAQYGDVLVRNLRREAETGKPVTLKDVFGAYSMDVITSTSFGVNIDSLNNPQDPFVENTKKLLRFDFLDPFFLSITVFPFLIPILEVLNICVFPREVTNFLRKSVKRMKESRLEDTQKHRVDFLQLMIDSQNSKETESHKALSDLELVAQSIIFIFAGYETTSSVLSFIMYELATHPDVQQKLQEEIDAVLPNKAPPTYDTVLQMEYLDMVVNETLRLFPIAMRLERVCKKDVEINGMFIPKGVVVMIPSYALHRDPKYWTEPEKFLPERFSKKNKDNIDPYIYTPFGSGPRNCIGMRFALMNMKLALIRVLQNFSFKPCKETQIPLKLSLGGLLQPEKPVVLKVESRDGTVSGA", "assay": "Cyp inhibition 3A4", "format": "in vitro ADME", "conditions": "10 μM", "method": "as §1"}, "HLM stability T1/2": {"assay": "HLM stability T1/2", "format": "in vitro ADME", "conditions": "human, liver microsomes; read-out: HLM T1/2", "method": "as §1"}, "RLM stability T1/2": {"assay": "RLM stability T1/2", "format": "in vitro ADME", "conditions": "rat, liver microsomes", "method": "as §1"}, "LogD (pH 7.4)": {"assay": "LogD (pH 7.4)", "format": "physicochemical", "method": "as §1"}, "CYP1A2": {"target": "T2, CYP1A2 (Homo sapiens, UniProt P05177)", "T2 sequence (P05177 1-516)": "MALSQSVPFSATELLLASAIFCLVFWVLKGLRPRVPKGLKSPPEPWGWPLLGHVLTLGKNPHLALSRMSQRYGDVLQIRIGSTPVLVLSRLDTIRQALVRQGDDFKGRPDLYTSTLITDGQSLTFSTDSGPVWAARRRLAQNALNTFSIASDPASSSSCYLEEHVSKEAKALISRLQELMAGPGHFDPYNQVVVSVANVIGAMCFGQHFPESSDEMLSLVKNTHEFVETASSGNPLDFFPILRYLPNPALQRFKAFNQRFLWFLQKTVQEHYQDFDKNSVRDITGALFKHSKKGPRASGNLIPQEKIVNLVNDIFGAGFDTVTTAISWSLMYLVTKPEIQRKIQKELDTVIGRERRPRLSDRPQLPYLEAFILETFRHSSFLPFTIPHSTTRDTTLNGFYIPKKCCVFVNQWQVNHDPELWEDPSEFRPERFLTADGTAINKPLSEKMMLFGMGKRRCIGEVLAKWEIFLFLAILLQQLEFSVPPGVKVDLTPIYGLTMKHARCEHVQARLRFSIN", "assay": "Cyp inhibition 1A2", "format": "in vitro ADME", "conditions": "10 μM", "method": "as §1"}, "CYP2D6": {"target": "CYP2D6 (Homo sapiens, UniProt P10635)", "sequence (P10635 whole entry)": "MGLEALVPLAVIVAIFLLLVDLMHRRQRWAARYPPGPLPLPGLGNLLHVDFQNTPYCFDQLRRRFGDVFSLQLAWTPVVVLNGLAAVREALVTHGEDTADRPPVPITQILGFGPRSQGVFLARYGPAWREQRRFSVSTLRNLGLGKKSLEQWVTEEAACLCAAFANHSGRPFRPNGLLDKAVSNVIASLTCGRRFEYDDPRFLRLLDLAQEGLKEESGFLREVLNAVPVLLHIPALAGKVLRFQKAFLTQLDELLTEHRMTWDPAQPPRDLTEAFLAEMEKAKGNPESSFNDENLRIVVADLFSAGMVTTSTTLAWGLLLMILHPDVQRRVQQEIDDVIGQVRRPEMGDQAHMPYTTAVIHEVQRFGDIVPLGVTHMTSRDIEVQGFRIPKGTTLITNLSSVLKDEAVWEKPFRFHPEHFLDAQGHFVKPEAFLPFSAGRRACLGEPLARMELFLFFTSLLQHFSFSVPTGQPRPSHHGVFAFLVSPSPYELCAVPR", "assay": "Cyp inhibition 2D6", "format": "in vitro ADME", "method": "as §1"}, "[2]": {"target": "T3, human ALDH2*2 recombinant mutant enzyme (E487K) (Homo sapiens, UniProt P05091, E504K)", "T3 construct": "His-tag (pTrcHis vector) (N); made in house; host or cells: E. coli BL21", "T3 sequence (P05091 18-517 E504K)": "T1 sequence (P05091 18-517) with E487K", "assay": "ALDH2 enzymatic assay (NADH at 340 nm), recombinant mutant enzyme", "format": "biochemical", "parameters": "key: −: no activation or inhibition; +: activation less than control 1; ++: activation similar to control 1, within 10%; +++: activation more than control 1 and less than control (compound 161); ++++: activation similar to compound 161, within 10%", "conditions": "activation relative to benchmarks control 1 and compound 161"}, "Caco-2 permeability": {"assay": "Caco-2 permeability", "format": "in vitro ADME", "conditions": "human; for Papp A→B: read-out: Caco-2 Papp A-B; for efflux ratio: read-out: Caco-2 Papp B-A/A-B", "method": "as §1"}, "Plasma stability, rat": {"assay": "Plasma stability, rat", "format": "in vitro ADME", "method": "as §1"}, "[3]": {"assay": "Plasma protein binding (PPB), rat", "format": "in vitro ADME", "method": "as §1"}},
  "note": "Residue numbers refer to the chain shown, from its start.",
  "data": [
    {"smiles": "O=C(NCc1ccc2c(c1)OCO2)c1c(Cl)cccc1Cl", "note": "[Control 1, reference compound]", "values": [
      {"measurement": "Aqu. Solu.", "setting": "Aqueous solubility", "value": 12, "unit": "µg/mL"},
      {"measurement": "fraction unbound", "setting": "[1]", "value": 0.025},
      {"measurement": "ALDH2 (wild-type)", "setting": "human ALDH2 wild type", "value": "++"},
      {"measurement": "Plasma stability Human", "setting": "Plasma stability, human", "value": 100, "unit": "%"},
      {"measurement": "inhibition at 10 µM", "setting": "CYP2C19", "value": 72.4, "unit": "%"},
      {"measurement": "half-life", "setting": "MLM stability T1/2", "value": 0.753, "unit": "min"},
      {"measurement": "inhibition at 10 µM", "setting": "CYP2C9", "value": 16.3, "unit": "%"},
      {"measurement": "half-life", "setting": "NHPLM stability T1/2", "value": 1.57, "unit": "min"},
      {"measurement": "inhibition at 10 µM", "setting": "CYP3A4", "value": 83.5, "unit": "%"},
      {"measurement": "half-life", "setting": "HLM stability T1/2", "value": 21.2, "unit": "min"},
      {"measurement": "half-life", "setting": "RLM stability T1/2", "value": 1.33, "unit": "min"},
      {"measurement": "logD", "setting": "LogD (pH 7.4)", "value": 3.4},
      {"measurement": "inhibition at 10 µM", "setting": "CYP1A2", "value": 31.9, "unit": "%"},
      {"measurement": "inhibition at 10 µM", "setting": "CYP2D6", "value": 9.1, "unit": "%"},
      {"measurement": "ALDH2 (mutant)", "setting": "[2]", "value": "++"},
      {"measurement": "Papp A→B", "setting": "Caco-2 permeability", "value": 16.6, "unit": "×10⁻⁶ cm/s"},
      {"measurement": "Papp B→A", "setting": "Caco-2 permeability", "value": 11.7, "unit": "×10⁻⁶ cm/s"},
      {"measurement": "efflux ratio", "setting": "Caco-2 permeability", "value": 0.7},
      {"measurement": "Plasma stability Rat", "setting": "Plasma stability, rat", "value": 100, "unit": "%"},
      {"measurement": "fraction unbound", "setting": "[3]", "value": 0.037}
    ]},
    {"smiles": "COc1ccc(CNC(=O)c2c(Cl)cccc2OCC2CC2)cc1F", "note": "[Compound 135]", "values": [
      {"measurement": "Aqu. Solu.", "setting": "Aqueous solubility", "value": 5, "unit": "µg/mL"},
      {"measurement": "ALDH2 (wild-type)", "setting": "human ALDH2 wild type", "value": "++++"},
      {"measurement": "half-life", "setting": "MLM stability T1/2", "value": 0.753, "unit": "min"},
      {"measurement": "half-life", "setting": "NHPLM stability T1/2", "value": 0.685, "unit": "min"},
      {"measurement": "half-life", "setting": "HLM stability T1/2", "value": 2.67, "unit": "min"},
      {"measurement": "half-life", "setting": "RLM stability T1/2", "value": 0.753, "unit": "min"},
      {"measurement": "logD", "setting": "LogD (pH 7.4)", "value": 3.8},
      {"measurement": "ALDH2 (mutant)", "setting": "[2]", "value": "++++"}
    ]},
    {"smiles": "COc1ccc(CNC(=O)c2c(Cl)cc[n+]([O-])c2OCC2CC2)cc1F", "note": "[Compound 169]", "values": [
      {"measurement": "Aqu. Solu.", "setting": "Aqueous solubility", "value": 272, "unit": "µg/mL"},
      {"measurement": "fraction unbound", "setting": "[1]", "value": 0.098},
      {"measurement": "ALDH2 (wild-type)", "setting": "human ALDH2 wild type", "value": "+"},
      {"measurement": "Plasma stability Human", "setting": "Plasma stability, human", "value": 100, "unit": "%"},
      {"measurement": "inhibition at 10 µM", "setting": "CYP2C19", "value": 3.5, "unit": "%"},
      {"measurement": "half-life", "setting": "MLM stability T1/2", "value": 100, "unit": "min"},
      {"measurement": "inhibition at 10 µM", "setting": "CYP2C9", "value": -12, "unit": "%"},
      {"measurement": "half-life", "setting": "NHPLM stability T1/2", "value": 51.3, "unit": "min"},
      {"measurement": "inhibition at 10 µM", "setting": "CYP3A4", "value": 7.7, "unit": "%"},
      {"measurement": "half-life", "setting": "HLM stability T1/2", "value": 3.85, "unit": "min"},
      {"measurement": "half-life", "setting": "RLM stability T1/2", "value": 82.5, "unit": "min"},
      {"measurement": "logD", "setting": "LogD (pH 7.4)", "value": 1.6},
      {"measurement": "inhibition at 10 µM", "setting": "CYP1A2", "value": 1.1, "unit": "%"},
      {"measurement": "inhibition at 10 µM", "setting": "CYP2D6", "value": 0.81, "unit": "%"},
      {"measurement": "ALDH2 (mutant)", "setting": "[2]", "value": "++"},
      {"measurement": "Papp A→B", "setting": "Caco-2 permeability", "value": 1.22, "unit": "×10⁻⁶ cm/s"},
      {"measurement": "Papp B→A", "setting": "Caco-2 permeability", "value": 13.1, "unit": "×10⁻⁶ cm/s"},
      {"measurement": "efflux ratio", "setting": "Caco-2 permeability", "value": 10.7},
      {"measurement": "Plasma stability Rat", "setting": "Plasma stability, rat", "value": 100, "unit": "%"},
      {"measurement": "fraction unbound", "setting": "[3]", "value": 0.367}
    ]},
    {"smiles": "COc1cccc(CNC(=O)c2c(Cl)cccc2Br)c1", "note": "[Compound 107]", "values": [
      {"measurement": "ALDH2 (wild-type)", "setting": "human ALDH2 wild type", "value": "+"},
      {"measurement": "ALDH2 (mutant)", "setting": "[2]", "value": "+"}
    ]},
    {"smiles": "COc1ccc(CNC(=O)c2c(Cl)ccnc2NCC2CC2)cc1F", "note": "[Compound 160]", "values": [
      {"measurement": "ALDH2 (wild-type)", "setting": "human ALDH2 wild type", "value": "++"},
      {"measurement": "ALDH2 (mutant)", "setting": "[2]", "value": "++"}
    ]},
    {"smiles": "COc1ccc(CNC(=O)c2c(C)cccc2NCC(C)C)cc1F", "note": "[Compound 117]", "values": [
      {"measurement": "ALDH2 (wild-type)", "setting": "human ALDH2 wild type", "value": "+"},
      {"measurement": "ALDH2 (mutant)", "setting": "[2]", "value": "++"}
    ]},
    {"smiles": "COc1ccc(CNC(=O)c2c(Cl)cccc2OCC2CCC2)cc1F", "note": "[Compound 144]", "values": [
      {"measurement": "ALDH2 (wild-type)", "setting": "human ALDH2 wild type", "value": "+++"},
      {"measurement": "ALDH2 (mutant)", "setting": "[2]", "value": "+++"}
    ]}
  ]
}
